The structures appear in SMILES notation. “And” between values parts separate entries of the source, which are not always exact repeats. Identical values can stand only once.

Assay [1] deals with Normal Human Dermal Papilla Cells. The assay can be described thus: DNA synthesis ([H]3-thymidine incorporation) in dermal papilla cells. Format: cell-based. Particulars: for [H] counts to denote incorporated Thymidine (relative DNA synthesis): individual replicates. The protocol: Methods: Normal Human Dermal Papilla Cells were obtained from Cell Applications Incorporated (San Diego, Calif.) which isolates the dermal papilla cells from hair plugs. Papilla cells were grown to 70% in 24 well plates. […] These treatments were carried out for 24 hours before [H]^3-Thymidine label (1 μCi/ml) was added in each well. DNA synthesis, an indicator of cell proliferation, was measured 24 hours later as a function of [H]^3-Thymidine incorporation.

The test system of assay [2] is hair plugs. The assay can be described thus: Hair growth in hair plugs exposed to creatine. Format: cell-based. As to conditions: creatine 1 mM; for Actual length of hair plugs / Hair growth normalized to length at day 0: individual plugs; for Average hair growth: n=6. The protocol: Methods: Hair plugs were obtained from East Wood Medical Hair Transplant Surgery (Garden City, N.Y.). These hair plugs were equilibrated in hair plug media as described in the literature (DMEM, 10% FBS, 1% PS, 25 mg insulin, 25 μg fungizone). These hair plugs were measured under the microscope one the first day of arrival and treated with creatine at 1 mM (n=6 for control and creatine group respectively). These hair plugs were then kept in the incubator at 37° C. in 5% CO2. On day 3, 7, & 10, re-treatments were made as well as measurements.

Take `Nc1ncnc2c1ncn2[C@@H]1O[C@H](COP(=O)(O)OP(=O)(O)OP(=O)(O)O)[C@@H](O)[C@H]1O` [ATP]: the figures for the “% increase compared to control (thymidine uptake / DNA synthesis)” value in assay [1] (0.25 mM) and in assay [1] (0.5 mM) were 1411% and 1201%, respectively.
Regarding `O=C(O)CC(=O)C(=O)O` [Oxaloacetate, oxaloacetic acid (oxaloacetate)], the “% increase compared to control (thymidine uptake / DNA synthesis)” value in assay [1] (0.25 mM) is listed as 22%; in assay [1] (0.25 mM, listed as Oxal) it was 21.57%; in assay [1] (0.5 mM) it was 33%; in assay [1] (0.5 mM, listed as Oxal), 33.26%; in assay [1] (1 mM), 38%; in assay [1] (1 mM, listed as Oxal), 37.58%. Moreover, the results for the Average thymidine uptake in assay [1] (0.25 mM), in assay [1] (0.5 mM) and in assay [1] (1 mM) were 22609.37, 24782.97 and 25586.67, respectively. Besides, the “[H] counts to denote incorporated Thymidine (relative DNA synthesis)” value in assay [1] (0.25 mM) is 26907.8 counts and 21897.4 counts and 19022.9 counts; in assay [1] (0.5 mM) it was 24483.7 counts and 21467.8 counts and 28397.4 counts; in assay [1] (1 mM), 25537.3 counts and 25092.4 counts and 26130.3 counts.
In the case of `CN(CC(=O)O)C(=N)N` [Creatine, creatine], the “Actual length of hair plugs” value in assay [2] (Day 0 (baseline)) was 3.8 mm and 6.3 mm and 8.1 mm and 8.3 mm and 8.2 mm and 7.6 mm; in assay [2] (Day 3), 4.7 mm and 7.1 mm and 9.5 mm and 9.1 mm (2×) and 8.5 mm; in assay [2] (Day 7), 5 mm and 7 mm and 9.6 mm (2×) and 9.8 mm and 9.2 mm; in assay [2] (Day 10), 5.5 mm and 7 mm and 9.7 mm (2×) and 9.8 mm and 9.2 mm. For the same molecule, the Average hair growth in assay [2] (Day 0) was 0 mm; in assay [2] (Day 3) it was 0.95 mm; in assay [2] (Day 7), 1.32 mm and 1.317 mm; in assay [2] (Day 10), 1.43 mm and 1.433 mm. Besides, the “% increase compared to untreated (hair growth)” value stood at 96.6% in assay [2] (Day 3), 79.5% in assay [2] (Day 7) and 75.5% in assay [2] (Day 10). Moreover, the “Hair growth normalized to length at day 0” value in assay [2] (Day 3) is 0.9 mm (3×) and 0.8 mm (2×) and 1.4 mm; in assay [2] (Day 7), 1.2 mm and 0.7 mm and 1.5 mm and 1.3 mm and 1.6 mm (2×); in assay [2] (Day 10) it was 1.7 mm and 0.7 mm and 1.6 mm (3×) and 1.4 mm. Also, the “Increase in hair growth compared to the untreated plugs” value in assay [2] (over 10 days) is “two fold”. Further, the “% increase compared to control (thymidine uptake / DNA synthesis)” value in assay [1] (0.25 mM) worked out at 35.66%; in assay [1] (0.25 mM, listed as creatine) it was 36%; in assay [1] (0.5 mM), 24.78%; in assay [1] (0.5 mM, listed as creatine), 25%; in assay [1] (1 mM) it was 5.697%; in assay [1] (1 mM, listed as creatine) it was 6%. Moreover, the Average thymidine uptake turned out to be 25229.47 in assay [1] (0.25 mM), 23206.37 in assay [1] (0.5 mM) and 19657.6 in assay [1] (1 mM). Further, the “[H] counts to denote incorporated Thymidine (relative DNA synthesis)” value in assay [1] (0.25 mM) was 27441.5 counts and 24848.2 counts and 23398.7 counts; in assay [1] (0.5 mM) it was 21850.6 counts and 23029.9 counts and 24738.6 counts; in assay [1] (1 mM), 20190.6 counts and 18789.8 counts and 19992.4 counts.
For the molecule `Nc1ncnc2c1ncn2[C@@H]1O[C@H](COP(=O)(O)O)[C@@H](O)[C@H]1O` [AMP], the figures for the “% increase compared to control (thymidine uptake / DNA synthesis)” value in assay [1] (0.25 mM), in assay [1] (0.5 mM) and in assay [1] (1 mM) were 1493%, 1930% and 1449%, respectively.

These data come from patent US8232317B2, “Method for increasing hair growth” (E-L Management Corp., priority 2003, dated 2012).
